# Source: US20180136241A1, “METHOD FOR EXAMINING FOOD ALLERGY AND EXAMINATION KIT” (The University of Tokyo, priority 2014, published 2018)
# How the values were obtained:
# [1] = cited from earlier work
# [2] = test system: food allergy symptoms induced by OVA; test: Frequency of diarrhea in OVA-induced food allergy model mouse; assay type: in vivo; settings: BALB/c mice sensitized with OVA, drug i.p. every day during OVA oral administration period; cromolyn 300 μg/mouse, DEX 2 mg/kg; n=5
# Procedure: (§1) Model preparation: Wild type BALB/c mice (6-8 weeks old, female) were intraperitoneally sensitized with OVA by administering OVA (50 μg) twice at intervals of two weeks. Two weeks later, OVA (10 mg) was orally administered 10 times in total at intervals of two days. As a control, the mice sensitized with OVA was orally administered with physiological saline 10 times in total at intervals of two days.
# Medication treatment: During the period of orally administering OVA to the mice sensitized with OVA in accordance with the aforementioned method, dexamethasone (2 mg/kg) or sodium cromoglycate (300 μg/mouse) were intraperitoneally administered every day.
# Symptom evaluation: The number of mice which developed diarrhea within one hour after the OVA administration is determined in percentage.
# [3] = test system: tetranor-PGDM amount excreted in the urine; test: Urinary tetranor-PGDM by HPLC-MS/MS in OVA-induced food allergy model mouse; assay type: in vivo; settings: BALB/c mice sensitized with OVA, drug i.p. every day during OVA oral administration period; cromolyn 300 μg/mouse, DEX 2 mg/kg; n=5
# Procedure: as §1
# Medication treatment: During the period of orally administering OVA to the mice sensitized with OVA in accordance with the aforementioned method, dexamethasone (2 mg/kg) or sodium cromoglycate (300 μg/mouse) were intraperitoneally administered every day. […]
# Using the urine sample pretreated, tetranor-PGDM and tetranor-PGEM were measured by a high performance liquid chromatography tandem mass spectrometer (HPLC-MS/MS). […] As a quantitative method, MRM (Multiple Reaction Monitoring) method was employed. Tetranor-PGDM (mass number 328) and tetranor-PGEM (mass number 328) were detected by using product ion m/z 309, which was produced by further decomposing the produced precursor ion m/z (mass number÷charge) 327 by collision induced dissociation (CID). Internal standards, tetranor-PGDM-d6 (mass number 334) and tetranor-PGEM-d6 (mass number 334), were detected by using product ion m/z 315, which was produced by further decomposing precursor ion m/z (mass number÷charge) 333 by CID. […]
# [4] = cited from earlier work; remark: listed apart in the source
compound,measurement,setting,value
"CCCCC[C@H](O)/C=C/[C@H]1C(=O)C[C@H](O)[C@@H]1C/C=C\CCCC(=O)O [PGD2, prostaglandin D2]",time in which PGD2 is metabolized in vivo,[1],50 s
"O=C(O)c1cc(=O)c2c(OCC(O)COc3cccc4oc(C(=O)O)cc(=O)c34)cccc2o1 [cromolyn, sodium cromoglycate]",food allergy symptoms induced by OVA (frequency of diarrhea),[2],suppressed food allergy symptoms
same,tetranor-PGDM amount excreted in the urine,[3],significantly decreased
NCCc1c[nH]cn1 [histamine],time in which histamine in the blood disappears,[4],15 min
